{"source": "patent US9573899B2", "about": "“USP7 inhibitor compounds and methods of use” (Genentech, Inc., priority 2015, dated 2017)", "key": {"USP7 catalytic domain": {"target": "USP7 catalytic domain (Homo sapiens, UniProt Q93009)", "sequence (Q93009 214-521 limits assumed)": "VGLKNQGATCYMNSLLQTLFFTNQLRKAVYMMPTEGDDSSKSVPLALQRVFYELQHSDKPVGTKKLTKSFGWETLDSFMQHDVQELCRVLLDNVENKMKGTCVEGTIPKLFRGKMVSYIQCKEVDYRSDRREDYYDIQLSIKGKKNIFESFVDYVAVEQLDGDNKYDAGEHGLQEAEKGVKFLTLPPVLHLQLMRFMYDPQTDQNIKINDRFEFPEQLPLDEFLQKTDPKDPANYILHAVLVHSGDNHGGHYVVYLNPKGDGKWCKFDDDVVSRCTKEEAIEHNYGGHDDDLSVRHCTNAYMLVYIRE", "assay": "Ub-Rho110 DUB assay, Table 2, USP7 catalytic domain", "assay_type": "biochemical", "conditions": "read-out: Ub-Rho110 IC50, USP7 cat", "protocol": "Biochemical USP7 assays using Ubiquitin-Rho110 as a substrate: The final assay conditions were as follows: The Reaction Buffer consisted of: 50 mM Tris (pH 7.5), 0.01% (v/v) Triton X-100, 2.5 mM Dithiothreitol, 0.1% (w/v) bovine gamma globulin (Sigma cat #G5009-25G); USP7, full-length, native C-Terminus, 0.2 nM; the substrate, Ubiquitin-Rho110 (Boston Biochem cat #U-555), 1 uM. Reactions were carried out for 1 hour at room temperature, in black 20 μL volume polystyrene ProxiPlate 384 F Plus® (PerkinElmer cat #6008260).\nTest compounds, including a control USP7 inhibitor (Ub-aldehyde, Boston Biochem cat #U-201) were serially diluted in DMSO, in 384 well clear V-bottom polypropylene plates (Greiner cat #781280). Compounds in DMSO were diluted 10-fold into Reaction Buffer, to achieve 3-fold the final desired concentration. The substrate, Ubiquitin-Rho110 (Boston Biochem cat #U-555), was prepared at 3 μM (3-fold the final concentration) and 5 ul was dispensed into the reaction plate. 5 ul of the compounds (diluted in Reaction Buffer at 3-fold the final concentration) were transferred to the reaction plate. 5 ul of 0.6 nM USP7 (diluted in Reaction Buffer at 3-fold the final concentration) was transferred to the reaction plate to initiate the reaction. After 1 hour incubation at room temperature the reaction was quenched by the addition of 5 ul of 400 mM acetic acid. The enzymatic product was measured by quantifying the fluorescence signal of cleaved Rhodamine-110 using excitation at 485 nm and emission at 535 nm. When pre-incubation of USP7 with compounds was required, the order of addition of reagents was modified to pre-mix the compounds with USP7 (with a 1 hour incubation period), prior to the addition of the substrate and the initiation of the reaction period. Percentage inhibition values were calculated relative to a no enzyme control and a uninhibited enzyme control. Curve fitting and IC50 calculations were carried out using Genedata Screener software."}, "[1]": {"tested_on": "HCT116 cells (wild type and USP7 null)", "assay": "CellTitre-Glo cell viability, HCT116 wild type and USP7 null (FIG. 4)", "assay_type": "cell-based, Human", "conditions": "HCT116 wild type versus USP7 null", "description": "(§1) 2,500-5,000 cells were seeded in 1-well of a 96-well plate (Corning; 3904). The following day, the media was changed from normal (10%) to low serum (0.5%) containing vehicle (DMSO) or compounds. 16-24 h later FBS was added to each well to bring serum levels back to normal (10%). Cells were then allowed to grow for 2 days. All treatments were done in triplicate.\n(§2) Seventy two hours after compounds were added, CellTitre Glo (CTG) reagent was added following the protocol provided by the manufacturer (Promega). In the experiment to test compound dependency on USP7, 3× more USP7 null cells were plated per well (7,500 vs. 2,500 for wild-type (WT) cells), given the slower proliferation of USP7 null cells. For the multiple myeloma experiment, cells seeded in low serum and treated with compounds immediately. Twenty four hours later, serum was added back to normal levels. CTG assay was done 24 h later i.e. 48 h after compounds were added instead of 72 hrs later for the adherent cells."}, "[2]": {"tested_on": "MCF-7, U Os, normal osteoblast, MDA-MB157 and SaOs cell lines", "assay": "CellTiter-Glo viability of tumor, matched normal and p53 null cell lines (FIG. 9)", "assay_type": "cell-based", "description": "as §1, §2"}, "[3]": {"tested_on": "U2Os p53 WT osteosarcoma cells", "assay": "Incucyte cell proliferation and caspase activity, U2Os (FIG. 11, 16)", "assay_type": "cell-based", "conditions": "U2Os p53 WT compared to SaOs p53 null cells; compared to 89", "description": "(§3) 2,500-5,000 cells were seeded in 1-well of a 96-well plate (Corning; 3904). The following day, the media was changed from normal (10%) to low serum (0.5%) containing vehicle (DMSO) or compounds. 16-24 h later FBS was added to each well to bring serum levels back to normal (10%). Cells were then allowed to grow for 2 days. All treatments were done in triplicate. The day after cells were seeded, the media was changed to low serum media containing 2 μM CellEvent Caspase 3/7 reagent (Life Technologies; C10423) and compounds. The plates were placed in an IncuCyte (Essen Bioscience, Inc.) live cell imager and scanning was started 15-20 mins after. IncuCyte™ ZOOM facilitates live-cell monitoring via customized imaging protocols. Images were taken every 2 h for at least 3 days, using a 10× objective. Phase contrast was used to measure cell confluency/density while green fluorescence was used to measure caspase activity. The images were analyzed using IncuCyte software (Basic Analysis parameters) and a ratio of caspase activity to cell density was determined."}, "[4]": {"tested_on": "KMS-21BM and KMS-28PE multiple myeloma cells", "assay": "Cell Titer Glo viability of multiple myeloma cells (FIG. 13A)", "assay_type": "cell-based", "conditions": "compared to 89", "description": "as §2"}, "[5]": {"tested_on": "colon cancer cell lines RKO and RKO-E6, and cervical cancer cell lines Vibo and SiHA", "assay": "Incucyte cell proliferation in RKO, RKO-E6, Vibo and SiHA cells (FIG. 15)", "assay_type": "cell-based", "description": "as §3"}, "USP5": {"target": "T1, USP5 (Homo sapiens, UniProt P45974)", "T1 sequence (P45974 1-858)": "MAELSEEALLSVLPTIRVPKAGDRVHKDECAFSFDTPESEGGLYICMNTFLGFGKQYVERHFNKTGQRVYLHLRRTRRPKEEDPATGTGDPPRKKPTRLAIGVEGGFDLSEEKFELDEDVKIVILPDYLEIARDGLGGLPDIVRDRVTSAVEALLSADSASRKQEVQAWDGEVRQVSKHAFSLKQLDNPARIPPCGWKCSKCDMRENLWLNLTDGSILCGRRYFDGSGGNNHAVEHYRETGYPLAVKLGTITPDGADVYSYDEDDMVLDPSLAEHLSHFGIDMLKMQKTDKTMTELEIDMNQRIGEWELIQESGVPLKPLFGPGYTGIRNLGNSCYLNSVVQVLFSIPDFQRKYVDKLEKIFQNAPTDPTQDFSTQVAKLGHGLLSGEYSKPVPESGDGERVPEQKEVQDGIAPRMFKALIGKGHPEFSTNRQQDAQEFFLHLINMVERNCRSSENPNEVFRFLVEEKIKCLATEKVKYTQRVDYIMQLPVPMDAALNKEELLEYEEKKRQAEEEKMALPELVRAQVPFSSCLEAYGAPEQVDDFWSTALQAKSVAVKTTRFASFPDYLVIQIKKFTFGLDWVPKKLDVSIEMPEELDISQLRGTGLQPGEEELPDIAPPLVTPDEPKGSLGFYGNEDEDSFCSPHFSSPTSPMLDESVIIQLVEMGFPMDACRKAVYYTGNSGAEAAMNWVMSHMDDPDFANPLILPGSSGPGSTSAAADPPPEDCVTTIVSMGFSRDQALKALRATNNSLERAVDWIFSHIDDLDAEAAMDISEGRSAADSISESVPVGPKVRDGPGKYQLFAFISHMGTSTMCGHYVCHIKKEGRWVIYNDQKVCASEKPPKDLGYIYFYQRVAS", "assay": "Ub-Rho110 DUB assay, Table 2, USP5"}}}
{"smiles": "CCc1c(-c2ccc3[nH]ncc3c2)cnc(N)c1-c1ccc(O)cc1", "note": "[Compound 88, 4-[2-amino-4-ethyl-5-(1H-indazol-5-yl)-3-pyridyl]phenol]", "values": [{"measurement": "IC50", "setting": "USP7 catalytic domain", "value": 0.43, "unit": "µM"}, {"measurement": "cell viability", "setting": "[1]", "value": "USP7-dependent decrease in viability"}, {"measurement": "cell viability (CellTiter-Glo), wild-type p53 tumor cell lines", "setting": "[2]; MCF-7 and U Os, relative to compound 89", "value": "decreased viability"}, {"measurement": "cell viability (CellTiter-Glo), matched normal and p53 null cell lines", "setting": "[2]; normal osteoblast cell lines, p53 null MDA-MB157 and SaOs", "value": "do not show similar decreases in cell viability"}, {"measurement": "cell viability (Incucyte proliferation and caspase activity)", "setting": "[3]", "value": "decreases cell viability"}, {"measurement": "cell viability (Cell Titer Glo signal)", "setting": "[4]", "value": "decrease in cell viability"}, {"measurement": "cell viability (Incucyte cell proliferation)", "setting": "[5]", "value": "decreases cell viability"}, {"measurement": "IC50", "setting": "USP5", "value": 18.6, "unit": "µM"}]}
